Results reported in PubChem BioAssay AID256 (DTP/NCI, 2004).
“And” between values parts separate entries of the source, which are not always exact repeats. Identical values can stand only once. Inconclusive results and toxic doses are left out. How the source made its calls: active means survival T/C of 150% or more; inactive means T/C below 125% in these data.

System: CD2F1 mice, L1210 leukemia ip, survival T/C
Assay: NCI In Vivo Anticancer Drug Screen. Data for tumor model L1210 Leukemia (intraperitoneal) in CD2F1 (CDF1) mice
Conditions: higher = longer survival
In short: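 Each value reflects a quotient of treated over vehicle control outcomes in mice with a transplanted tumor.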

[1] = endpoint: mean survival time, dose: 100.0 mg/kg/injection, schedule: Q01DX001 (ip), vehicle: saline with Tween-80
[2] = endpoint: mean survival time, dose: 100.0 mg/kg/injection, schedule: Q01DX009 (ip), vehicle: saline with Tween-80
[3] = endpoint: mean survival time, dose: 200.0 mg/kg/injection, schedule: Q01DX001 (ip), vehicle: saline with Tween-80
[4] = endpoint: mean survival time, dose: 200.0 mg/kg/injection, schedule: Q01DX009 (ip), vehicle: saline with Tween-80
[5] = endpoint: mean survival time, dose: 400.0 mg/kg/injection, schedule: Q01DX001 (ip), vehicle: saline with Tween-80
[6] = endpoint: mean survival time, dose: 400.0 mg/kg/injection, schedule: Q01DX009 (ip), vehicle: saline with Tween-80
[7] = endpoint: mean survival time, dose: 25.0 mg/kg/injection, schedule: Q01DX009 (ip), vehicle: saline with Tween-80
[8] = endpoint: mean survival time, dose: 50.0 mg/kg/injection, schedule: Q01DX009 (ip), vehicle: saline with Tween-80
[9] = endpoint: mean survival time, dose: 6.25 mg/kg/injection, schedule: Q01DX009 (ip), vehicle: saline with Tween-80
[10] = endpoint: mean survival time, dose: 100.0 mg/kg/injection, schedule: Q04DX003 (ip), vehicle: saline with Tween-80
[11] = endpoint: mean survival time, dose: 200.0 mg/kg/injection, schedule: Q04DX003 (ip), vehicle: saline with Tween-80
[12] = endpoint: mean survival time, dose: 400.0 mg/kg/injection, schedule: Q04DX003 (ip), vehicle: saline with Tween-80

Measured: T/C

CNNCc1ccc(C(=O)NC(C)C)cc1
inactive: endpoint: mean survival time, dose: 3.13 mg/kg/injection, schedule: Q01DX010 (ip), vehicle: saline 96 % of control | endpoint: mean survival time, dose: 6.25 mg/kg/injection, schedule: Q01DX010 (ip), vehicle: saline 106 % of control | endpoint: mean survival time, dose: 6.25 mg/kg/injection, schedule: Q01DX010 (sc), vehicle: saline 103 % of control | endpoint: mean survival time, dose: 12.5 mg/kg/injection, schedule: Q01DX010 (ip), vehicle: saline 108 % of control | endpoint: mean survival time, dose: 25.0 mg/kg/injection, schedule: Q01DX010 (oral), vehicle: saline 120 % of control | endpoint: mean survival time, dose: 25.0 mg/kg/injection, schedule: Q01DX010 (sc), vehicle: saline 116 % of control | endpoint: mean survival time, dose: 29.7 mg/kg/injection, schedule: Q01DX009 (ip), vehicle: saline 110 % of control | endpoint: mean survival time, dose: 38.0 mg/kg/injection, schedule: Q03DX004 (ip), vehicle: saline 100 % of control | endpoint: mean survival time, dose: 50.0 mg/kg/injection, schedule: Q01DX010 (sc), vehicle: saline 120 % of control | endpoint: mean survival time, dose: 100.0 mg/kg/injection, schedule: Q04DX003 (ip), vehicle: saline 112 % of control | endpoint: mean survival time, dose: 150.0 mg/kg/injection, schedule: Q03DX004 (ip), vehicle: saline 108 % of control
active: endpoint: mean survival time, dose: 133.0 mg/kg/injection, schedule: Q01DX009 (ip), vehicle: saline 159 % of control and 170 % of control | endpoint: mean survival time, dose: 200.0 mg/kg/injection, schedule: Q01DX007 (ip), vehicle: saline 179 % of control

COCCNc1ccc([N+](=O)[O-])cc1[N+](=O)[O-]
inactive: [1] 92 % of control | [2] 95 % of control | [3] 92 % of control | [4] 93 % of control | [5] 96 % of control | [6] 91 % of control

Cc1nc2c(c(-c3ccccc3)n1)Cc1ccccc1O2
inactive: endpoint: mean survival time, dose: 100.0 mg/kg/injection, schedule: Q01DX001 (ip), vehicle: saline 98 % of control | endpoint: mean survival time, dose: 200.0 mg/kg/injection, schedule: Q01DX001 (ip), vehicle: saline 98 % of control | endpoint: mean survival time, dose: 400.0 mg/kg/injection, schedule: Q01DX001 (ip), vehicle: saline 101 % of control

COc1cccc(N=C(N)N=C(N)N)c1
inactive: endpoint: mean survival time, dose: 100.0 mg/kg/injection, schedule: Q01DX009 (ip), vehicle: saline 95 % of control | endpoint: mean survival time, dose: 200.0 mg/kg/injection, schedule: Q01DX009 (ip), vehicle: saline 90 % of control

COc1ccc2c(O)c(-c3ccc(OC)c(OC)c3)c(=O)oc2c1
inactive: [7] 96 % of control | [8] 103 % of control | [2] 106 % of control

CC(=O)NO
inactive: endpoint: median survival time, dose: 25.0 mg/kg/injection, schedule: Q03HX024 (ip), vehicle: water 104 % of control | endpoint: median survival time, dose: 50.0 mg/kg/injection, schedule: Q01DX009 (ip), vehicle: water 101 % of control | endpoint: median survival time, dose: 50.0 mg/kg/injection, schedule: Q03HX024 (ip), vehicle: water 105 % of control | endpoint: median survival time, dose: 62.5 mg/kg/injection, schedule: Q01DX009 (ip), vehicle: saline 111 % of control | endpoint: median survival time, dose: 62.5 mg/kg/injection, schedule: Q01DX009 (ip), vehicle: water 99 % of control | endpoint: median survival time, dose: 100.0 mg/kg/injection, schedule: Q01DX009 (ip), vehicle: water 105 % of control | endpoint: median survival time, dose: 100.0 mg/kg/injection, schedule: Q03HX024 (ip), vehicle: water 114 % of control | endpoint: median survival time, dose: 125.0 mg/kg/injection, schedule: Q01DX009 (ip), vehicle: saline 111 % of control | endpoint: median survival time, dose: 125.0 mg/kg/injection, schedule: Q01DX009 (ip), vehicle: water 101 % of control | endpoint: median survival time, dose: 250.0 mg/kg/injection, schedule: Q01DX009 (ip), vehicle: saline 118 % of control | endpoint: median survival time, dose: 250.0 mg/kg/injection, schedule: Q01DX009 (ip), vehicle: water 111 % of control
active: endpoint: median survival time, dose: 400.0 mg/kg/injection, schedule: Q01DX009 (ip), vehicle: water 152 % of control | endpoint: median survival time, dose: 400.0 mg/kg/injection, schedule: Q03HX024 (ip), vehicle: water 241 % of control | endpoint: median survival time, dose: 500.0 mg/kg/injection, schedule: Q01DX009 (ip), vehicle: saline 152 % of control | endpoint: median survival time, dose: 800.0 mg/kg/injection, schedule: Q01DX009 (ip), vehicle: water 173 % of control and 183 % of control | endpoint: median survival time, dose: 1000.0 mg/kg/injection, schedule: Q01DX009 (ip), vehicle: saline 172 % of control

CC1CN1C(=O)NCCCCCCNC(=O)N1CC1C (stereo unspecified)
inactive: endpoint: mean survival time, dose: 0.31 mg/kg/injection, schedule: Q01DX009 (ip), vehicle: Klucel (hydroxypropylcellulose) (HPC) 89 % of control | endpoint: mean survival time, dose: 0.63 mg/kg/injection, schedule: Q01DX009 (ip), vehicle: Klucel (hydroxypropylcellulose) (HPC) 119 % of control and 101 % of control | endpoint: mean survival time, dose: 1.25 mg/kg/injection, schedule: Q01DX009 (ip), vehicle: Klucel (hydroxypropylcellulose) (HPC) 97 % of control | endpoint: mean survival time, dose: 2.5 mg/kg/injection, schedule: Q01DX001 (ip), vehicle: Klucel (hydroxypropylcellulose) (HPC) 98 % of control | endpoint: mean survival time, dose: 2.5 mg/kg/injection, schedule: Q01DX009 (ip), vehicle: Klucel (hydroxypropylcellulose) (HPC) 110 % of control | endpoint: mean survival time, dose: 5.0 mg/kg/injection, schedule: Q01DX001 (ip), vehicle: Klucel (hydroxypropylcellulose) (HPC) 94 % of control | endpoint: mean survival time, dose: 10.0 mg/kg/injection, schedule: Q01DX001 (ip), vehicle: Klucel (hydroxypropylcellulose) (HPC) 100 % of control | endpoint: mean survival time, dose: 20.0 mg/kg/injection, schedule: Q01DX001 (ip), vehicle: Klucel (hydroxypropylcellulose) (HPC) 107 % of control
active: endpoint: mean survival time, dose: 5.0 mg/kg/injection, schedule: Q01DX009 (ip), vehicle: Klucel (hydroxypropylcellulose) (HPC) 156 % of control

CCc1cccc(CC)c1NC(=S)NN
inactive: endpoint: mean survival time, dose: 25.0 mg/kg/injection, schedule: Q04DX002 (ip), vehicle: saline with Tween-80 104 % of control | endpoint: mean survival time, dose: 50.0 mg/kg/injection, schedule: Q04DX002 (ip), vehicle: saline with Tween-80 96 % of control | endpoint: mean survival time, dose: 100.0 mg/kg/injection, schedule: Q04DX002 (ip), vehicle: saline with Tween-80 96 % of control

O=[N+]([O-])C=C(S)S
inactive: endpoint: mean survival time, dose: 25.0 mg/kg/injection, schedule: Q01DX009 (ip), vehicle: Klucel (hydroxypropylcellulose) (HPC) 111 % of control | endpoint: mean survival time, dose: 50.0 mg/kg/injection, schedule: Q01DX009 (ip), vehicle: Klucel (hydroxypropylcellulose) (HPC) 98 % of control | endpoint: mean survival time, dose: 100.0 mg/kg/injection, schedule: Q01DX009 (ip), vehicle: Klucel (hydroxypropylcellulose) (HPC) 93 % of control | endpoint: mean survival time, dose: 200.0 mg/kg/injection, schedule: Q01DX009 (ip), vehicle: Klucel (hydroxypropylcellulose) (HPC) 90 % of control

COC(=O)c1ccc(C)c(NC2=NCCO2)c1
inactive: [9] 96 % of control | endpoint: mean survival time, dose: 12.5 mg/kg/injection, schedule: Q01DX009 (ip), vehicle: saline with Tween-80 97 % of control | [7] 102 % of control | [8] 105 % of control | [1] 97 % of control | [3] 97 % of control | [5] 93 % of control

O/N=C/C=N/O.O/N=C/C=N/O.[Pd]
inactive: [9] 100 % of control

Cc1nc(-c2ccccc2)nc2c1CCO2
inactive: [10] 102 % of control | [11] 100 % of control | [12] 105 % of control

N=C(N)c1nn(C2OC(CO)C(O)C2O)c2nc[nH]c(=O)c12 (stereo unspecified)
active: endpoint: median survival time, dose: 12.5 mg/kg/injection, schedule: Q01DX005 (ip), vehicle: Klucel + Tween-80 153 % of control
inactive: endpoint: median survival time, dose: 3.12 mg/kg/injection, schedule: Q01DX005 (ip), vehicle: Klucel + Tween-80 122 % of control | endpoint: median survival time, dose: 25.0 mg/kg/injection, schedule: Q01DX005 (ip), vehicle: Klucel + Tween-80 120 % of control and 89 % of control

CCOC(=O)C(Cc1ccc(OC)c(OC)c1)C(Cc1ccc(OC)c(OC)c1)C(=O)OCC (stereo unspecified)
inactive: [2] 96 % of control | [10] 95 % of control | [4] 95 % of control | [11] 93 % of control | [6] 96 % of control | [12] 87 % of control

C=C1C(=O)OC(CCCCCCCCCCCCC)C1C(=O)O (stereo unspecified)
inactive: endpoint: mean survival time, dose: 10.0 mg/kg/injection, schedule: Q04DX002 (ip), vehicle: saline with Tween-80 108 % of control | endpoint: mean survival time, dose: 20.0 mg/kg/injection, schedule: Q04DX002 (ip), vehicle: saline with Tween-80 87 % of control

N=C(N)c1cc(Cl)c(OCc2ccccc2)c(Cl)c1
inactive: endpoint: mean survival time, dose: 25.0 mg/kg/injection, schedule: Q04DX003 (ip), vehicle: saline with Tween-80 97 % of control | endpoint: mean survival time, dose: 50.0 mg/kg/injection, schedule: Q04DX003 (ip), vehicle: saline with Tween-80 96 % of control

Cc1cc(C(O)(C(=O)O)c2ccccc2)c(C)c(C)c1C (stereo unspecified)
inactive: endpoint: mean survival time, dose: 75.0 mg/kg/injection, schedule: Q01DX001 (ip), vehicle: other 90 % of control | endpoint: mean survival time, dose: 150.0 mg/kg/injection, schedule: Q01DX001 (ip), vehicle: other 94 % of control | endpoint: mean survival time, dose: 300.0 mg/kg/injection, schedule: Q01DX001 (ip), vehicle: other 102 % of control
